Columns and labels:
[1] = system: human embryonic stem cell derived neural stem cells (NSCs); assay: Neural Stem Cell Proliferation Assay (neurogenesis assay, ATP levels by CellTiterGlo); format: cell-based; settings: 96 h, compound concentration at which 150% activity of control (100%) is reached, NSC proliferation by ATP level after 4 days incubation, dose response 8 μM to 8 nM
Outline: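 Read-out is CellTiterGlo ATP luminescence after 4-day culture (37 °C, 5% CO2) of dual-SMAD-derived human ESC NSCs, dosed 4 h post-seeding at 8 μM to 8 nM (11 points, 2-fold). EC150 marks the concentration reaching 150% of the media-only control (0.25% DMSO).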

Row | melting point [°C] | SMILES | EC (150% of control) [1] [µM]
1 | 300 | CC(C)(C)c1ccc(-c2cc(C#N)cc3cc4n(c23)CCNC4=O)cc1 [Example 230, 6-(4-tert-Butylphenyl)-1-oxo-3,4-dihydro-2H-pyrazino[1,2-a]indole-8-carbonitrile] | 0.14
2 | 318 | Cc1c2n(c3c(-c4ccc(Cl)nc4)cc(C#N)cc13)CCNC2=O [Example 278, 6-(6-Chloropyridin-3-yl)-10-methyl-1-oxo-3,4-dihydro-2H-pyrazino[1,2-a]indole-8-carbonitrile] | 0.44
3 | 272 | Cc1c2n(c3c(-c4ccc(F)nc4)cc(C#N)cc13)CCNC2=O [Example 169, 6-(6-Fluoro-pyridin-3-yl)-10-methyl-1-oxo-1,2,3,4-tetrahydro-pyrazino[1,2-a]indole-8-carbonitrile] | 0.066
4 | 247 | Cc1c2n(c3c(-c4ccc(F)nc4)cc(F)cc13)CCNC2=O [Example 141, 8-Fluoro-6-(6-fluoro-pyridin-3-yl)-10-methyl-3,4-dihydro-2H-pyrazino[1,2-a]indol-1-one] | 0.13
5 | 330.5 | N#Cc1cc(-c2ccc(Cl)c(Cl)c2)c2c(c1)cc1n2CCNC1=O [Example 192, 6-(3,4-Dichlorophenyl)-1-oxo-3,4-dihydro-2H-pyrazino[1,2-a]indole-8-carbonitrile] | 0.13
6 | 257 | O=C1NCCCn2c1cc1cc(F)cc(-c3ccc(C(F)(F)F)cc3)c12 [Example 31, 9-Fluoro-7-(4-trifluoromethyl-phenyl)-2,3,4,5-tetrahydro-[1,4]diazepino[1,2-a]indol-1-one] | 0.056
7 | 226 | COc1ccc(-c2cc(F)cc3c(C)c4n(c23)CCNC4=O)cn1 [Example 146, 8-Fluoro-6-(6-methoxy-pyridin-3-yl)-10-methyl-3,4-dihydro-2H-pyrazino[1,2-a]indol-1-one] | 0.02
8 | 253 | N#Cc1cccc(-c2cc(C#N)cc3cc4n(c23)CCNC4=O)c1 [Example 194, 6-(3-Cyanophenyl)-1-oxo-3,4-dihydro-2H-pyrazino[1,2-a]indole-8-carbonitrile] | 1.08
9 | 244.5 | Cc1c2n(c3c(-c4ccc5c(c4)OCO5)cc(Cl)cc13)CCNC2=O [Example 103, 6-Benzo[1,3]dioxol-5-yl-8-chloro-10-methyl-3,4-dihydro-2H-pyrazino[1,2-a]indol-1-one] | 0.018
10 | 238 | Cc1c2n(c3c(-c4ccc(F)c(F)c4F)cc(C#N)cc13)CCNC2=O [Example 246, 10-Methyl-1-oxo-6-(2,3,4-trifluorophenyl)-3,4-dihydro-2H-pyrazino[1,2-a]indole-8-carbonitrile] | 0.084
11 | 274.5 | COc1ccc(-c2c(F)c(F)cc3cc4n(c23)CCNC4=O)cc1 [Example 39, 7,8-Difluoro-6-(4-methoxy-phenyl)-3,4-dihydro-2H-pyrazino[1,2-a]indol-1-one] | 0.005
12 | 251 | Cc1c2n(c3c(-c4ccc5c(c4)CCO5)cc(F)cc13)CCNC2=O [Example 129, 6-(2,3-Dihydro-benzofuran-5-yl)-8-fluoro-10-methyl-3,4-dihydro-2H-pyrazino[1,2-a]indol-1-one] | 0.022
13 | 251.5 | Cc1c2n(c3c(-c4ccc(Cl)cc4F)cc(Cl)cc13)CCNC2=O [Example 101, 8-Chloro-6-(4-chloro-2-fluoro-phenyl)-10-methyl-3,4-dihydro-2H-pyrazino[1,2-a]indol-1-one] | 0.006
14 | 314 | Cc1c2n(c3c(-c4ccc(C#N)cc4)cc(C#N)cc13)CCCNC2=O [Example 200, 7-(4-Cyanophenyl)-11-methyl-1-oxo-2,3,4,5-tetrahydro-[1,4]diazepino[1,2-a]indole-9-carbonitrile] | 0.041
15 | 329 | CS(=O)(=O)c1ccc(-c2cc(C#N)cc3cc4n(c23)CCNC4=O)cc1 [Example 191, 6-(4-Methylsulfonylphenyl)-1-oxo-3,4-dihydro-2H-pyrazino[1,2-a]indole-8-carbonitrile] | 0.24
16 | 264 | COc1ccc(-c2cc(Cl)cc3c(C)c4n(c23)CCNC4=O)cc1 [Example 67, 8-Chloro-6-(4-methoxy-phenyl)-10-methyl-3,4-dihydro-2H-pyrazino[1,2-a]indol-1-one] | 0.008
17 | 227.5 | Cc1c2n(c3c(-c4ccc(F)cc4)cc(Cl)cc13)CCNC2=O [Example 66, 8-Chloro-6-(4-fluoro-phenyl)-10-methyl-3,4-dihydro-2H-pyrazino[1,2-a]indol-1-one] | 0.047

Row | melting point [°C] | SMILES | EC (150% of control) [1] [µM]
18 | 258 | Cc1c2n(c3c(-c4ccccc4)cc(C#N)cc13)CCCNC2=O [Example 245, 11-Methyl-1-oxo-7-phenyl-2,3,4,5-tetrahydro-[1,4]diazepino[1,2-a]indole-9-carbonitrile] | 0.095
19 | 227 | Cc1c2n(c3c(-c4nnc(C(F)(F)F)s4)cc(F)cc13)CCNC2=O [Example 184, 8-Fluoro-10-methyl-6-[5-(trifluoromethyl)-1,3,4-thiadiazol-2-yl]-3,4-dihydro-2H-pyrazino[1,2-a]indol-1-one] | 1.11
20 | 248.5 | N#Cc1cc(-c2cc(F)c(F)c(F)c2)c2c(c1)cc1n2CCCNC1=O [Example 248, 1-Oxo-7-(3,4,5-trifluorophenyl)-2,3,4,5-tetrahydro-[1,4]diazepino[1,2-a]indole-9-carbonitrile] | 0.62
21 | 237.5 | N#Cc1cc(-c2ccccc2)c2c(c1)cc1n2CCCNC1=O [Example 274, 1-Oxo-7-phenyl-2,3,4,5-tetrahydro-[1,4]diazepino[1,2-a]indole-9-carbonitrile] | 1.1
22 | 220 | Cc1c2n(c3c(-c4ccc(CO)cc4)cc(F)cc13)CCNC2=O [Example 130, 8-Fluoro-6-(4-hydroxymethyl-phenyl)-10-methyl-3,4-dihydro-2H-pyrazino[1,2-a]indol-1-one] | 0.011
23 | 225.5 | N#Cc1cccc(-c2cc(C#N)cc3cc4n(c23)CCCNC4=O)c1 [Example 269, 7-(3-Cyanophenyl)-1-oxo-2,3,4,5-tetrahydro-[1,4]diazepino[1,2-a]indole-9-carbonitrile] | 1.09
24 | 225 | Cc1c2n(c3c(-c4ccc(F)cc4F)cc(C#N)cc13)CCCNC2=O [Example 205, 7-(2,4-Difluorophenyl)-11-methyl-1-oxo-2,3,4,5-tetrahydro-[1,4]diazepino[1,2-a]indole-9-carbonitrile] | 0.031
25 | 315.5 | N#Cc1cc(-c2ccncc2)c2c(c1)cc1n2CCNC1=O [Example 92, 1-Oxo-6-pyridin-4-yl-1,2,3,4-tetrahydro-pyrazino[1,2-a]indole-8-carbonitrile] | 0.047
26 | 252 | Cc1c2n(c3c(-c4ccc(C(C)(C)C)cc4)cc(Cl)cc13)CCNC2=O [Example 118, 6-(4-tert-Butyl-phenyl)-8-chloro-10-methyl-3,4-dihydro-2H-pyrazino[1,2-a]indol-1-one] | 0.15
27 | 292 | Cc1c2n(c3c(-c4ccc(F)cc4)cc(C#N)cc13)CCNC2=O [Example 162, 6-(4-Fluoro-phenyl)-10-methyl-1-oxo-1,2,3,4-tetrahydro-pyrazino[1,2-a]indole-8-carbonitrile] | 0.021
28 | 278 | N#Cc1cc(-c2ccc(Cl)cc2F)c2c(c1)cc1n2CCNC1=O [Example 174, 6-(4-Chloro-2-fluoro-phenyl)-1-oxo-1,2,3,4-tetrahydro-pyrazino[1,2-a]indole-8-carbonitrile] | 0.019
29 | 316 | Cc1c2n(c3c(-c4cnc(N)nc4)cc(Cl)cc13)CCNC2=O [Example 143, 6-(2-Amino-pyrimidin-5-yl)-8-chloro-10-methyl-3,4-dihydro-2H-pyrazino[1,2-a]indol-1-one] | 0.32
30 | 223.5 | O=C1NCCCn2c1cc1cc(F)c(F)c(-c3ccc(F)cc3)c12 [Example 40, 8,9-Difluoro-7-(4-fluoro-phenyl)-2,3,4,5-tetrahydro-[1,4]diazepino[1,2-a]indol-1-one] | 0.024
31 | 224 | Cc1c2n(c3c(-c4ccc(Cl)c(Cl)c4)cc(F)cc13)CCNC2=O [Example 86, 6-(3,4-Dichloro-phenyl)-8-fluoro-10-methyl-3,4-dihydro-2H-pyrazino[1,2-a]indol-1-one] | 0.05
32 | 225 | O=C1NCCCn2c1cc1cc(F)c(F)c(-c3ccc(F)c(F)c3)c12 [Example 42, 7-(3,4-Difluoro-phenyl)-8,9-difluoro-2,3,4,5-tetrahydro-[1,4]diazepino[1,2-a]indol-1-one] | 0.21
33 | 306 | Cc1c2n(c3c(-c4cc(F)c(F)c(F)c4)cc(C#N)cc13)CCCNC2=O [Example 244, 11-Methyl-1-oxo-7-(3,4,5-trifluorophenyl)-2,3,4,5-tetrahydro-[1,4]diazepino[1,2-a]indole-9-carbonitrile] | 0.47
34 | 264 | Cc1c2n(c3c(-c4ccnc(F)c4)cc(C#N)cc13)CCCNC2=O [Example 208, 7-(2-Fluoropyridin-4-yl)-11-methyl-1-oxo-2,3,4,5-tetrahydro-[1,4]diazepino[1,2-a]indole-9-carbonitrile] | 0.049

From patent US9284321B2, “Piperazino[1,2-a]indol-1-ones and [1,4]diazepino[1,2-a]indol-1-one” (Hoffmann-La Roche Inc., priority 2012, dated 2016)
